Experiment [1] concerns air pouch prostaglandin biosynthesis (Cox-2). In words: Carrageenan induced air pouch prostaglandin biosynthesis model (CAP). The settings on record: 4 h; 3 mpk, rat; read-out: CAP % Inhib. @ 3 mpk. The format is in vivo, rat. The essentials: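 Male Sprague Dawley rats with dorsal air pouches (20 mL air day 0, 10 mL day 3) received 0.2% lambda carrageenan in saline into the pouch on day 7. Compounds dosed at 0.1 to 10 mg/kg 30 min before carrageenan; pouch lavaged 4 h later, prostaglandins measured by EIA. Percent inhibition versus control mean; ED50 by linear regression.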

For experiment [2], the target named is T1, recombinant human Cox-2 (r-hu Cox-2) (Homo sapiens, UniProt P35354).
T1 construct: made in house; host or cells: baculovirus/Sf9 insect cells (microsomes)
T1 sequence (P35354 18-604): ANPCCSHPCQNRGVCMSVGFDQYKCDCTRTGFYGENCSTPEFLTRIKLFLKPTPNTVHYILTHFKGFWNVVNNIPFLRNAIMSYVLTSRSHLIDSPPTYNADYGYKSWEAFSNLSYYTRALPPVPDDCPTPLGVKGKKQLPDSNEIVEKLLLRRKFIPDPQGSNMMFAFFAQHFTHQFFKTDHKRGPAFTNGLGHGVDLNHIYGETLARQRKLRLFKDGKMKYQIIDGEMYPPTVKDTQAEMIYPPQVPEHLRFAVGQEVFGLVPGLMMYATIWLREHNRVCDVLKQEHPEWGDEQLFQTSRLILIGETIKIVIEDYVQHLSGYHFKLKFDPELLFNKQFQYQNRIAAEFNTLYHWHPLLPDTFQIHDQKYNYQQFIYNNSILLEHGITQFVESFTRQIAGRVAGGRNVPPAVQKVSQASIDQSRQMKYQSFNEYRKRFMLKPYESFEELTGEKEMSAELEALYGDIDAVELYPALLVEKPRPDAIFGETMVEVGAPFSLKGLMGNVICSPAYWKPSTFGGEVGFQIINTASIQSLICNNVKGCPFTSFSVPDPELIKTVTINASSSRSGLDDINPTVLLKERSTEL
In words: Recombinant human PGHS-2 enzyme assay (RHUCX2). As to conditions: read-out: RHUCX2 IC50 (parenthetical value). The format is biochemical. An outline of the steps:
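Prostaglandin biosynthesis was measured as PGE2 output, read by enzyme immunoassay after a 2.5-minute room-temperature reaction stopped with HCl and neutralized with NaOH.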

In experiment [3] the target is T2, Human Whole Platelet Cyclooxygenase-1 (Homo sapiens, UniProt P23219).
T2 construct: from tissue; host or cells: human blood: isolated platelets (A4) or heparinised whole blood (A9)
T2 sequence (P23219 24-599): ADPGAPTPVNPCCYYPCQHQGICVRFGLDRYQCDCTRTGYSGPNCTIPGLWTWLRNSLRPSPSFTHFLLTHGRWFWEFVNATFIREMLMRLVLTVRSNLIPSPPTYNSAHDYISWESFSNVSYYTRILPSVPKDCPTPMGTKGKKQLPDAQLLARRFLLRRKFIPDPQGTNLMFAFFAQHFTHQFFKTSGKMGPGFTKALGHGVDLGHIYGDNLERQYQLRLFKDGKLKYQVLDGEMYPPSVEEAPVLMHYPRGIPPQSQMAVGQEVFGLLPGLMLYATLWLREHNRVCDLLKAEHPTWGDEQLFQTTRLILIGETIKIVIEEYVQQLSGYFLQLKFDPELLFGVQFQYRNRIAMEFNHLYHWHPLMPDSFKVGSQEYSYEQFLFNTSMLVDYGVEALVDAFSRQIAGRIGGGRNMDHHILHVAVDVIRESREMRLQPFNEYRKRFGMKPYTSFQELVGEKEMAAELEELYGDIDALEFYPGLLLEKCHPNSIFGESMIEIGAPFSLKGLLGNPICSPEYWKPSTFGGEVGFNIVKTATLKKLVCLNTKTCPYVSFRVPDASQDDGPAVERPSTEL
In words: Human Whole Platelet Cyclooxygenase-1 assay (HWPX). The format is cell-based. As to conditions: read-out: HWPX IC50 (parenthetical value). The essentials:
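Washed platelets from healthy-donor ACD blood were pre-incubated with compound for 10 min, then stimulated with calcium ionophore A23187 (8.8 μM final) for 10 min. Reaction stopped with cold 6 mM EDTA; thromboxane in supernatants quantified with a commercial kit.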

Experiment [4] deals with T3, human amnionic whole cell cyclooxygenase-2 (WISH cells) (Homo sapiens, UniProt P35354).
T3 construct: endogenous in cells; host or cells: human amnionic WISH cells, induced with IL-1beta
T3 sequence (P35354 18-604): T1 sequence (P35354 18-604)
In words: IL-1β induced PGE2 production in WISH cells. The format is cell-based. As to conditions: read-out: Wish IC50 (parenthetical value). The essentials: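 Confluent (80%) WISH cells were stimulated with 5 ng/ml IL-1β in serum-free Neuman-Tytell medium, with or without test compound in DMSO (0.01% v/v). PGE2 in the culture medium was measured by EIA against standards prepared in the same medium, read by optical density.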

For experiment [5], the system named is carrageenan induced paw edema. Kind of experiment: Carrageenan induced paw edema (CPE) in rats. The experiment is classed as in vivo. As to conditions: 10 mpk oral, rat, 3 hours after carrageenan; read-out: CPE % Inhib. @ 10 mpk. The essentials: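 Male Sprague-Dawley rats (170–190 g) dosed orally in PEG 400, 1 h before subplantar 0.1 ml 1% lambda carrageenan in right hindpaw. Plethysmographic paw volume at 0 and 3 h; edema as difference, % inhibition versus control mean (±SEM), Dunnett's test, ED50 by linear regression.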
On the technique in general: Carrageenan injected into the paw causes an acute inflammation.

Drawing on patent US20020028938A1, “Prostaglandin endoperoxide H synthase biosynthesis inhibitors” (priority 1997, published 2002), this text covers inhibition in vivo and IC50 for one molecule.

The term IC50 denotes the point on the concentration scale where inhibition reaches its midpoint.

Take `NS(=O)(=O)c1ccc(-c2cnn(-c3ccc(F)cc3)c(=O)c2-c2ccc(F)cc2)cc1` [Example 89]: in experiment [1], the inhibition in vivo at 3 mg/kg was determined as 94%. For the same molecule, the values for the IC50 in experiment [2], in experiment [3] and in experiment [4] were 350 nM, 2100 nM and 50 nM, respectively. In addition, the inhibition in vivo at 10 mg/kg in experiment [5] came to 45.5%.
